Data: patent US4139605A, “Water-soluble, non-ionizing, radiopaque compounds and contrast compositions containing the same” (Bracco Industria Chimica S.p.A., priority 1977, dated 1979)
Converted amounts (≈) assume the structure as drawn. “Also recorded” adds a separate entry of the source. Where two headings read alike, the source gives them in different places.

Columns and labels:
[1] = Osmotic pressure of aqueous solutions at 37° C.; assay type: physicochemical
Experimental: (§1) Toxicity is listed as LD50 in mg I/kg body weight 12 days after intravenous injection and 48 hours after intracerebral injection in mice. The osmotic pressure was determined at 37° C. in solutions containing 400 mg I per ml, unless specifically noted otherwise, and is indicated in atmospheres.

[2] = Solubility in water, methanol and ethanol; assay type: physicochemical
mouse [3] = experiment: Toxicity, LD50 48 hours after intracerebral injection in mice; assay type: in vivo; conditions: 48 hours after injection
Experimental: as §1

[4] = Viscosity of aqueous solutions at body temperature; assay type: physicochemical; conditions: aqueous solutions containing
[5] = General toxicity and side effects; assay type: in vivo; conditions: in words
[6] = Stability and storage life of solutions; assay type: physicochemical; conditions: aqueous solutions
mouse [7] = experiment: Toxicity, LD50 12 days after intravenous injection in mice; assay type: in vivo; conditions: 12 days after injection
Experimental: Properties of compounds A, B, C, D of this invention, of the chemically nearest known compounds E, F, and of chemically less closely related known radiopaque compounds G, H, I used heretofore for visualizing blood vessels and cavities of the spinal cord and the brain are listed in the Table hereinbelow. Toxicity is listed as LD50 in mg I/kg body weight 12 days after intravenous injection and 48 hours after intracerebral injection in mice. The osmotic pressure was determined at 37° C. in solutions containing 400 mg I per ml, unless specifically noted otherwise, and is indicated in atmospheres.

rabbits = experiment: Intracisternal toxicity, LD50 (48 hours) in rabbits; assay type: in vivo
Experimental: The preferred compounds of the invention are those identified in the table above by letters B and C. […] LD50 (48 hours) in rabbits is about 233 mg I per kg.

[8] = water, 20° C., read-out: solubility in water

Row | Structure (SMILES) | Osmotic pressure ([1]; 400 mg I per ml) [atm.] | Toxicity, LD50, intracerebral (mouse [3]) [mg I/kg] | solubility in water ([2]; water, in words) | Toxicity, LD50, intravenous (mouse [7]) [mg I/kg] | other results
1 | CC(O)C(=O)Nc1c(I)c(C(=O)NCCOCCOCCNC(=O)c2c(I)c(NC(=O)C(C)O)c(I)c(C(=O)NC(CO)CO)c2I)c(I)c(C(=O)NC(CO)CO)c1I (stereo not shown) [Compound A, 1,8-bis-[5,-(1,3-dihydroxyisopropyl)aminocarbonyl-3-(2-hydroxypropionyl)amino-2,4,6-triiodo-benzoylamino]-3,6,dioxaoctane] | 8.15 | 1100 |  |  | solubility in ethanol ([2]; boiling ethanol): about 2.5%; solubility in ethanol ([2]; ethanol, in words): sparingly soluble in ethanol; solubility in ethanol ([2]; ethanol, room temperature): about 1%; solubility in methanol ([2]; methanol, in words): soluble in methanol; solubility [2, 8]: ~500 mg/mL (≈ 329 mM); solubility ([2]; water, boiling temperature, read-out: solubility in water): ~1000 mg/mL (≈ 658 mM)
2 | CC(O)C(=O)Nc1c(I)c(C(=O)NCCCOCCOCCOCCOCCCNC(=O)c2c(I)c(NC(=O)C(C)O)c(I)c(C(=O)NC(CO)CO)c2I)c(I)c(C(=O)NC(CO)CO)c1I (stereo not shown) [Compound B, 1,16-bis-[5-(1,3-dihydroxyisopropyl)aminocarbonyl-3-(2-hydroxypropionyl)amino-2,4,6-triiodobenzoylamino]-4,7,10,13-tetraoxahexadecane] |  | 990 |  |  | solubility ([2]; methanol, organic solvent or mixture, boiling methanol, read-out: solubility in methanol): 500 mg/mL (≈ 306 mM); solubility [2, 8]: ~1000 mg/mL (≈ 611 mM); viscosity [4]: relatively low viscosity; side effects [5]: lack of side effects; stability of solutions [6]: stable; storage life of solutions [6]: long storage life
3 | CC(O)C(=O)Nc1c(I)c(C(=O)NC(CO)CO)c(I)c(C(=O)N(C)CCOCCOCCOCCN(C)C(=O)c2c(I)c(NC(=O)C(C)O)c(I)c(C(=O)NC(CO)CO)c2I)c1I (stereo not shown) [Compound C, 1,11-bis [N-methyl-N-{5-(1,3-dihydroxyisopropyl)aminocarbonyl-3-(2-hydroxypropionyl)amino-2,4,6-triiodobenzoyl}-amino]-3,6,9-trioxaundecane] | 10.59 | 1130 | dissolves readily in water | 14000 | solubility in ethanol ([2]; ethanol, in words): only moderately well in ethanol; viscosity [4]: relatively low viscosity; intracisternal toxicity (rabbits; in words): particularly low; LD50 (48 hours), intracisternal (rabbits; rabbits, 48 hours): about 233 mg I per kg; side effects [5]: lack of side effects; stability of solutions [6]: stable; storage life of solutions [6]: long storage life
4 | CC(O)C(=O)Nc1c(I)c(C(=O)NC(CO)CO)c(I)c(C(=O)N(C)CCCOCCOCCOCCOCCCN(C)C(=O)c2c(I)c(NC(=O)C(C)O)c(I)c(C(=O)NC(CO)CO)c2I)c1I (stereo not shown) [Compound D, 1,16-bis-[N-methyl-N-{5-(1,3-dihydroxyisopropyl)aminocarbonyl-3-(2-hydroxypropionyl)amino-2,4,6-triiodobenzoyl}amino]-4,7,10,13-tetraoxahexadecane] | 9.42 | 1420 | dissolves very readily in water; also recorded: readily dissolved in water |  | solubility in methanol ([2]; methanol, in words): soluble in methanol
5 | CC(O)C(=O)Nc1c(I)c(C(=O)NC(CO)CO)c(I)c(C(=O)NC(CO)CO)c1I (stereo not drawn) [E, 5-α-hydroxypropionylamino-2,4,6-triiodo-isophthalic acid-bis-(1,3-dihydroxyisopropylamide)] | 22.2 | 1500 |  | 21800 | 
6 | CC(O)C(=O)Nc1c(I)c(C(=O)NCCCOCCOCCOCCOCCCNC(=O)c2c(I)c(NC(=O)C(C)O)c(I)c(C(=O)NC(C)(CO)CO)c2I)c(I)c(C(=O)NC(C)(CO)CO)c1I (stereo not shown) [Example 9, 1,16-bis-[5-(1,3-dihydroxy-2-methyl-2propyl)aminocarbonyl-3-(2-hydroxypropionyl)amino-2,4,6-triiodo-benzoylamino]-4,7,10,13tetraoxahexadecane] |  |  | dissolves readily in water |  | 
7 | CC(O)C(=O)Nc1c(I)c(C(=O)NCCOCCOCCOCCOCCNC(=O)c2c(I)c(NC(=O)C(C)O)c(I)c(C(=O)NC(C)(CO)CO)c2I)c(I)c(C(=O)NC(C)(CO)CO)c1I (stereo not shown) [Example 10, 1,14-bis-[5-(1,3-dihydroxy-2methyl-2-propyl)aminocarbonyl-3-(2-hydroxypropionyl)amino-2,4,6-triiodo-benzoylamino]-3,6,9,12-tetraoxatetradecane] |  |  | dissolved readily in water |  | 
8 | CC(O)C(=O)Nc1c(I)c(C(=O)NCCOCCNC(=O)c2c(I)c(NC(=O)C(C)O)c(I)c(C(=O)NC(C)(CO)CO)c2I)c(I)c(C(=O)NC(C)(CO)CO)c1I (stereo not shown) [Example 11, 1,5-Bis-[5-(1,3-dihydroxy-2-methyl-2-propyl)aminocarbonyl-3-(2-hydroxypropionyl)amino-2,4,6-triiodo-benzoylamino]-3-oxapentane] |  |  |  |  | solubility ([2]; water, per 100 ml, 20° C., read-out: solubility in water): > 1000 mg/mL
9 | O=C(CO)Nc1c(I)c(C(=O)NCCOCCOCCOCCOCCNC(=O)c2c(I)c(NC(=O)CO)c(I)c(C(=O)NC(CO)CO)c2I)c(I)c(C(=O)NC(CO)CO)c1I [Example 12, 1,14-bis-[5-(1,3-dihydroxyisopropyl)aminocarbonyl-3-hydroxy-acetylamino-2,4,6-triiodo-benzoylamino]-3,6,9,12-tetraoxa-tetradecane] |  |  | readily dissolved in water |  | 
10 | CC(=O)Nc1c(I)c(C(=O)N[C@H]2C(O)O[C@H](CO)[C@@H](O)[C@@H]2O)c(I)c(N(C)C(C)=O)c1I (stereo partly shown) [F, 3-acetylamino-5-N-methyl-acetylamino-2,4,6-triiodo-benzoyl-glucosamine] | 14.7 | 1400 |  | 10200 | 
11 | CNC(=O)c1c(I)c(NC(=O)CCCCC(=O)Nc2c(I)c(C(=O)O)c(I)c(C(=O)NC)c2I)c(I)c(C(=O)O)c1I [G, 5,5'-adipoyldiimino-bis-(2,4,6-triiodo-N-methyl-isophthalamic acid)] |  | 600 |  | 5500 | Osmotic pressure ([1]; 280 mg I/ml): 27.5 atm.
12 | CNC(=O)c1c(I)c(NC(=O)CN(CC(=O)Nc2c(I)c(C(=O)O)c(I)c(C(=O)NC)c2I)CC(=O)Nc2c(I)c(C(=O)O)c(I)c(C(=O)NC)c2I)c(I)c(C(=O)O)c1I [H, 5,5',5"-(nitrilotriacetyl-triimino-tris-)-2,4,6-triiodo-N'-methyl-isophthalamic acid] | 36.2 |  |  | 5800 | 
13 | CC(=O)Nc1c(I)c(NC(C)=O)c(I)c(C(=O)O)c1I [I, 3,5-bis-acetylamino-2,4,6-triiodobenzoic acid] |  |  |  | 7600 | 
